Test results: the METLIN SMRT retention time set (Domingo-Almenara et al. 2019)

assay: gradient 5% acetonitrile 3 min, to 50% in 2 min, to 85% in 15 min, held 3 min, 100 µL/min; conditions: column: Zorbax Extend-C18 2.1 x 50 mm; eluents: water / acetonitrile, 0.1% formic acid
In short: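 A Zorbax Extend-C18 column (2.1 × 50 mm, 1.8 μm) run at 100 μL/min with water and acetonitrile, both containing 0.1% formic acid, separated mixtures of ~100 pure standards. The HPLC was coupled to a quadrupole time-of-flight mass spectrometer operated in positive and negative ionization mode, with dead and dwell volumes of 40 μL and 900 μL. Each retention time was taken from a computationally picked adduct peak that was then manually inspected.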

Structure (SMILES)	RP-LC retention time [s]
O=C(C1CCN(S(=O)(=O)c2cc(-c3noc(C4CC4)n3)cs2)CC1)N1CCc2ccccc21	1070
CCn1cc(S(=O)(=O)N2CCCC(c3nnnn3-c3ccccc3)C2)cn1 (configuration not stated)	807
CCC(Sc1nnc2c3ccccc3n(C(C)C)c2n1)C(=O)Nc1nc(-c2ccccc2)cs1 (configuration not stated)	1310
CN(C)c1ccc(CNc2ccc(-c3nc(-c4ccc(F)cc4)no3)cn2)cc1	889
Cc1cc(Cl)ccc1NC(=O)C1CCN(S(=O)(=O)c2cc(C(=O)N3CCCC3)cs2)CC1	892
O=C(Cc1csc2nc(-c3ccccc3)cn12)Nc1ccc(Cl)cc1F	881
CC(=O)N1c2ccc(S(=O)(=O)N3CCCCC3)cc2CC1C(=O)NCCc1ccc(Cl)cc1 (configuration not stated)	924
Cc1cc(C)nc(Nc2nc(C(=O)N3CCN(C(=O)c4ccco4)CC3)cs2)n1	665
O=C1CCCc2cc(S(=O)(=O)N3CCCN(Cc4ccccc4Cl)C3)ccc2N1	750
O=C(Nc1ccccc1)N1CCN(Cc2nc3cc(Cl)ccc3o2)CC1	716
COc1ccc(S(=O)(=O)N2CC3CN(C(=O)c4ccc(C#N)cc4)CC(C2)O3)cc1	773
CCCC(NC(=O)c1ccc(C(F)(F)F)cc1)C(=O)Nc1nc2ccccc2[nH]1 (configuration not stated)	802
CCc1ccccc1NS(=O)(=O)c1cc2n(c1)CCCNC2=O	663
Cc1ccc(C2Cn3nnc(-c4nc(-c5ccsc5)no4)c3CO2)c(C)c1 (configuration not stated)	1220
Cn1cc(CCNS(=O)(=O)c2ccccc2Br)c2cccnc21	741
O=C(NCC1CCOCC1)Nc1ccccc1C(F)(F)F	734
Cc1ccc2c(c1)c(C)c(C)n2CC(O)Cn1nc(C)cc1C (configuration not stated)	933
CCOC(=O)c1cc(S(=O)(=O)N2CCCC2C(=O)Nc2cccc(F)c2)cn1C (configuration not stated)	938
COc1cccc(-c2noc(CSc3nccn3-c3ccccc3)n2)c1OC	857
CCOC(=O)c1ccccc1NC(=O)N1CCN(c2ccc(=O)n(-c3ccccc3)n2)CC1	995

Structure (SMILES)	RP-LC retention time [s]
CC(C)n1cnc(S(=O)(=O)N2CCCC(C(=O)NCCCc3ccccc3)C2)c1 (configuration not stated)	806
Cc1onc(C(=O)N2CCCCCCNC(=O)[C@@H]3CCCC[C@@H]32)c1CN1CCCCC1	686
CC1CCc2c(sc3nc(CCC(=O)N4CCC(C(N)=O)CC4)[nH]c(=O)c23)C1 (configuration not stated)	697
Cn1cc(-c2cc3n(n2)CCCN3C(=O)CCC(=O)NCCC2=CCCCC2)c2ccccc21	920
CCNc1cc(N2CCC(CCC(=O)NCc3c(C)nn(C)c3C)CC2)ncn1	575
CCn1cnc(S(=O)(=O)N2CCCC(C(=O)Nc3ccc(C)cc3Cl)C2)c1 (configuration not stated)	809
O=C(Nc1ccc(Cl)cc1)N1CCc2[nH]cnc2C1c1ccncc1 (configuration not stated)	565
O=C(c1sc2ccccc2c1Cl)N1CCN(c2ccccn2)CC1	678
CCn1cc(S(=O)(=O)N2CCC(c3noc(-c4ccccc4)n3)C2)cn1 (configuration not stated)	881
O=C(c1ccc(Cl)nc1)N1CCCC1c1nc(-c2cccc(C(F)(F)F)c2)no1 (configuration not stated)	1070
CS(=O)(=O)N1CCN(C(=O)c2ccc(-n3cccn3)nn2)CC1	601
CCN(CC)C(=O)Nc1ccc(C)c(Cl)c1	827
CN1CCCN(C(=O)c2cn3ccnc(-c4ccccc4)c3n2)CC1	710
COc1ccc2c(c1)C(OC(C)C)=C(C(N)=O)S2=O (configuration not stated)	623
CSc1ccc(NC(=O)CCNc2cnc3cnccn23)cc1	619
CCNC(=O)N1CCCCCC1CN1CCCC1 (configuration not stated)	564
COC(=O)c1cccc(C(=O)Nc2ccccc2)n1	800
O=C(N[C@H]1C[C@@H]2C[C@H]1CN2S(=O)(=O)c1ccc2c(c1)CCC2)c1cccs1	943
C/C=C/c1ccc(OCC(O)CN2CCN(C)CC2)c(OC)c1 (configuration not stated)	560
Cc1noc([C@@H]2CN(C(=O)c3ccc(Cn4ccnc4)o3)C[C@H]2C(N)=O)n1	538

Other lines, results leading:

RP-LC retention time [s]	Structure (SMILES)
1040	Cc1sc(NC(=O)c2cccc(Br)c2)nc1-c1ccc2c(c1)NC(=O)C(C)O2 (configuration not stated)
841	Cc1ccc(CN2CCN(C3CCN(C(=O)Nc4ccc5c(c4)OCO5)CC3)C2=O)cc1
651	O=C(Nc1ccc2c(c1)OCO2)Nc1ccc2nc3n(c(=O)c2c1)CCCC3
811	CCN1CCN(c2ccc(NC(=O)c3ccc(F)c(Cl)c3)cn2)C1=O
635	Cc1csc(C(=O)Nc2ccc(CC(=O)N3CCC(O)CC3)cc2)c1
664	COCCn1ccc2nc(C)c(C(=O)NCc3ccc4c(c3)OCO4)cc2c1=O
957	Cc1nc(C)c(C(=O)N(Cc2ccccn2)c2nc3c(Cl)cccc3s2)s1
868	Cc1cccc(CNC(=O)C2CCCN2S(=O)(=O)c2cc3c(cc2Cl)NC(=O)CO3)c1 (configuration not stated)
982	CCN1C(=O)C(C)(C(=O)Nc2cccc(Cl)c2)Oc2cccnc21 (configuration not stated)
681	CCOC(=O)Cc1c(CN2CCN(C)CC2)c2ccccc2n1Cc1ccccc1
797	COc1ccc(-c2cn3ccn(-c4cc(C)cc(C)c4)c(=O)c3n2)cc1OC
633	COCCNC(=O)C1CCCN(c2ncnc3c2oc2ccccc23)C1 (configuration not stated)
874	CCc1nc(N2CCCC2=O)sc1C(=O)NCc1ccccc1Cl
982	CCc1nn(CC)c(=O)c2cc(S(=O)(=O)NCc3cccc(Cl)c3)cn12
658	COC(=O)Nc1nc2ccc(S(=O)c3ccccc3)cc2[nH]1 (configuration not stated)
921	COc1ccc(NC(=O)C2CCN(S(C)(=O)=O)c3ccccc3O2)cc1Cl (configuration not stated)
699	CCCn1c2ccccc2c2cnn(CC(=O)NCCN(C)Cc3ccccc3)c(=O)c21
1210	CC(C)(C)OC(=O)COc1cc(O)c2c(=O)cc(-c3ccccc3)oc2c1
786	CS(=O)(=O)N1CCCc2ccc(NC(=O)c3ccc4nsnc4c3)cc21
804	Cc1ccn2cc(C(=O)NC3CCN(Cc4ccccc4)CC3)nc2c1
830	CCn1ccc2c(cc(C(=O)Nc3ccc(C)c(F)c3)n2C)c1=O
715	Cc1ccc(C2(O)C(=O)N(CC(=O)Nc3ccc(F)cc3F)c3ccccc32)cc1 (configuration not stated)
960	CCOC(=O)c1ccc(NC2=NS(=O)(=O)C(c3ccccc3)=C2C)cc1
948	COc1ccc(N2CC(c3noc(-c4ccc(F)c(F)c4)n3)CC2=O)cc1 (configuration not stated)
916	Cc1ccccc1CNC(=O)CN1C(=O)CCCc2cc(S(=O)(=O)N3CCCC3)ccc21
1190	CCCCn1cc(S(=O)(=O)N2CCN(c3ccccc3F)CC2)c2cccnc21
679	CCCn1cc(-c2ccncc2)cc1C(=O)Nc1ccc2c(c1)OCCO2
